According to the supplement of paper PMC10627819:

Experiments:
[1] = test system: S. pneumoniae D39V; experiment: Bliss interaction score (quartile over a dose matrix) (fitness difference); higher = more antagonism (negative = synergy)
How it was run: (§1)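 Fitness is OD595 at stationary-phase entry relative to the plate's robust no-drug mean, capped at 1. Single-drug fitness was inferred from combinations. The Bliss score is observed minus product-expected fitness, summarised by quartiles over technical, biological and donor/recipient replicates.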

[2] = test system: B. subtilis 168; experiment: as above
How it was run: as §1

[3] = test system: S. aureus DSM 20231; experiment: as above
How it was run: as §1

[4] = test system: S. aureus Newman; experiment: as above
How it was run: as §1

[5] = test system: S. pneumoniae D39V; experiment: fitness (endpoint OD595 vs no drug) (fraction); higher = more growth
How it was run: (§2)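 Growth medium was TSB, LB Lennox or CY, and plates were kept at 37 °C. Inoculation was at OD595 0.01 in 384-well plates, at 30 µl per well or 55 µl for S. pneumoniae. OD595 was monitored every 30 min for 14 h and background-subtracted using the first reading. Fitness is the optical density on entering stationary phase divided by the robust mean of no-drug controls, with values capped at 1.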

[6] = test system: S. aureus DSM 20231; experiment: as above
How it was run: as §2

[7] = test system: S. aureus Newman; experiment: as above
How it was run: as §2
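Wherever Bliss interaction score (quartile over a dose matrix) is given: first quartile when negative (synergy) and third quartile when positive (antagonism).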

CO/N=C(\C(=O)N[C@@H]1C(=O)N2C(C(=O)O)=C(COC(C)=O)CS[C@H]12)c1csc(N)n1 [Cefotaxime] + CN[C@H](CC(C)C)C(=O)N[C@H]1C(=O)N[C@@H](CC(N)=O)C(=O)N[C@H]2C(=O)N[C@H]3C(=O)N[C@H](C(=O)N[C@H](C(=O)O)c4cc(O)cc(O)c4-c4cc3ccc4O)[C@H](O)c3ccc(c(Cl)c3)Oc3cc2cc(c3O[C@@H]2O[C@H](CO)[C@@H](O)[C@H](O)[C@H]2O[C@H]2C[C@](C)(N)[C@H](O)[C@H](C)O2)Oc2ccc(cc2Cl)[C@H]1O [Vancomycin]
Settings | Bliss interaction score
[1] | -0.084
[2] | -0.0945
[3] | -0.0428
[4] | -0.0425

Settings | fitness
[5], first compound 0.0018 µg/mL, partner 0.03125 µg/mL | ≥ 1
[5], first compound 0.0018 µg/mL, partner 0.0625 µg/mL | 0.892
[5], first compound 0.0018 µg/mL, partner 0.125 µg/mL | 0.907
[5], first compound 0.0018 µg/mL, partner 0.25 µg/mL | 0.909
[5], first compound 0.0018 µg/mL, partner 0.5 µg/mL | 0.0621
[5], first compound 0.0035 µg/mL, partner 0.03125 µg/mL | 0.94
[5], first compound 0.0035 µg/mL, partner 0.0625 µg/mL | 0.803
[5], first compound 0.0035 µg/mL, partner 0.25 µg/mL | 0.793
[5], first compound 0.0035 µg/mL, partner 0.5 µg/mL | 0.047
[5], first compound 0.007 µg/mL, partner 0.25 µg/mL | 0.257
[5], first compound 0.007 µg/mL, partner 0.5 µg/mL | 0.0521
[6], first compound 0.039 µg/mL, partner 0.1875 µg/mL | 0.791
[6], first compound 0.039 µg/mL, partner 0.375 µg/mL | 0.78
[6], first compound 0.039 µg/mL, partner 0.75 µg/mL | 0.805
[6], first compound 0.078 µg/mL, partner 0.1875 µg/mL | 0.715
[6], first compound 0.078 µg/mL, partner 0.375 µg/mL | 0.795
[6], first compound 0.078 µg/mL, partner 0.75 µg/mL | 0.752
[6], first compound 0.156 µg/mL, partner 0.1875 µg/mL | 0.629
[6], first compound 0.156 µg/mL, partner 0.375 µg/mL | 0.698
[6], first compound 0.156 µg/mL, partner 0.75 µg/mL | 0.772
[6], first compound 0.312 µg/mL, partner 0.1875 µg/mL | 0.641
[6], first compound 0.312 µg/mL, partner 0.375 µg/mL | 0.733
[6], first compound 0.312 µg/mL, partner 0.75 µg/mL | 0.82
[7], first compound 0.078 µg/mL, partner 0.1875 µg/mL | 0.723
[7], first compound 0.078 µg/mL, partner 0.375 µg/mL | 0.758
[7], first compound 0.078 µg/mL, partner 0.75 µg/mL | 0.761
[7], first compound 0.156 µg/mL, partner 0.1875 µg/mL | 0.62
[7], first compound 0.156 µg/mL, partner 0.375 µg/mL | 0.648
[7], first compound 0.156 µg/mL, partner 0.75 µg/mL | 0.614
[7], first compound 0.625 µg/mL, partner 0.1875 µg/mL | 0.0427
[7], first compound 0.625 µg/mL, partner 0.375 µg/mL | 0.0413
[7], first compound 0.625 µg/mL, partner 0.75 µg/mL | 0.0855
[7], first compound 1.25 µg/mL, partner 0.1875 µg/mL | 0.0418
[7], first compound 1.25 µg/mL, partner 0.375 µg/mL | 0.0511
[7], first compound 1.25 µg/mL, partner 0.75 µg/mL | 0.0481
[7], first compound 2.5 µg/mL, partner 0.1875 µg/mL | 0.036
[7], first compound 2.5 µg/mL, partner 0.375 µg/mL | 0.0526
[7], first compound 2.5 µg/mL, partner 0.75 µg/mL | 0.0388

fitness, [7], one replicate
Settings | partner 0.1875 µg/mL | partner 0.375 µg/mL | partner 0.75 µg/mL
first compound 0.039 µg/mL | 0.732 | 0.867 | 0.784
first compound 0.312 µg/mL | 0.34 | 0.353 | 0.395

CO/N=C(\C(=O)N[C@@H]1C(=O)N2C(C(=O)O)=C(COC(C)=O)CS[C@H]12)c1csc(N)n1 [Cefotaxime] + Cn1nnc(-c2ccc(-c3ccc(N4C[C@H](CO)OC4=O)cc3F)cn2)n1 [Tedizolid]
Settings | Bliss interaction score
[1] | 0.0955
[2] | 0.0923
[3] | 0.114
[4] | -0.105

fitness
Settings | partner 0.03125 µg/mL | partner 0.0625 µg/mL | partner 0.125 µg/mL | partner 0.25 µg/mL | partner 0.5 µg/mL
[5], first compound 0.0018 µg/mL | 0.968 | 0.969 | 0.844 | 0.482 | 0.172
[5], first compound 0.0035 µg/mL | 0.953 | 0.972 | 0.847 | 0.468 | 0.14
[5], first compound 0.007 µg/mL | 0.95 | 0.958 | 0.812 | 0.427 | 0.104
[6], first compound 0.078 µg/mL | – | 0.767 | 0.718 | 0.532 | –
[6], first compound 0.156 µg/mL | – | 0.761 | 0.608 | 0.509 | –
[6], first compound 0.312 µg/mL | – | 0.691 | 0.602 | 0.448 | –
[7], first compound 0.078 µg/mL | – | 0.592 | 0.475 | 0.217 | –
[7], first compound 0.156 µg/mL | – | 0.455 | 0.338 | 0.0974 | –
[7], first compound 0.312 µg/mL | – | 0.232 | 0.145 | 0.0726 | –
[7], first compound 0.625 µg/mL | – | 0.0654 | 0.0082 | 0.0399 | –
[7], first compound 1.25 µg/mL | – | 0.021 | 0.0172 | 0.03 | –
[7], first compound 2.5 µg/mL | – | 0.0122 | 0.0108 | 0.0325 | –

[6], first compound 0.039 µg/mL, one replicate
Settings | fitness
partner 0.0625 µg/mL | 0.806
partner 0.125 µg/mL | 0.762
partner 0.25 µg/mL | 0.643
